These results are taken from US20230189790A1, “NON-FREEZING REFRIGERATED STORAGE LIQUID FOR STEM CELLS” (BIOVERDE INC., priority 2019, published 2023).

In experiment [1] the test system is human iPS cell line (253G1). Description: Non-freezing refrigerated storage in single cell state at 4° C., survival rate by trypan blue. Conditions: for effect of antioxidant/radical scavenger on ST80 (ranking): added to HTM1 at various concentrations; for 80% survival-rate maintenance days (ST80): single cell state, 4° C. The experiment is classed as cell-based. The text has this:
A healthy human-derived human iPS cell line (253G1) obtained from the Center for iPS Cell Research and Application, Kyoto University was maintained and cultured under feeder-free conditions. For this culture, StemFit (registered trademark) AK02N (Ajinomoto), which is a commercially available medium for clinical research for human ES/iPS cells was used. When the cells reached 70-80% confluence on the 7th day after the start of the culture, the cells were enzymatically stripped off from a container by using 0.5X TrypLE® Select, and then dispersed and washed. Subsequently, the cells were suspended in a new StemFit® AK02N medium containing 10 µM Y27362 (Fujifilm Wako Pure Chemical Industries, Ltd.) as a ROCK inhibitor, and added with iMatrix-511 (MATRIXOME, Inc.) as a further cell culture substrate at 0.1 µg/cm^2. Then, the cells were seeded at a concentration of 1.3E3/cm^2 (1.3 ×10^3/cm^2). The day after the seeding, the medium was replaced with StemFit® AK02N medium containing no Y27362, then the medium was replaced every 3 days and subcultured or tested on day 7.
The human iPS cells obtained in “1.” above are added into the refrigerated storage liquids HTM1 and HTM2 in “2.” above to be suspended at 1E6 cells/mL (number of floating cells 1x10^6 cells/mL) in a cell state. Then, the suspensions were placed into a plastic tube and allowed to stand at 4° C. for storage. The survival rate was determined by counting the number of living cells after staining with trypan blue.
The statistical processing in the examples of the present application was performed as follows. The survival rate maintenance curves in FIGS. 1A and 2B were obtained by using “R ver 3.5.1” to fit the four-variable logistic curve. The 1way ANOVA and Bonferoni and Dunnetts tests were calculated using “Graphpad Prism 5.04”.
Antioxidants or radical scavengers were added to HTM1 at various concentrations and subjected to the non-freezing refrigerated storage test as described in “3.” above. The added antioxidants or radical scavengers are shown in FIG. 5A and are: Trolox (Trx, Wako), EGCG (Teavigo®, DSM), N-acetylcysteine (NAC, Tokyo Kasei), L-ascorbic acid (AA, WAKO)), and edaravone (3-Methyl-1-phenyl-2-pyrazoline-5-one, Sigma).

Experiment [2] has as its system human iPS cells. In words: Colony forming ability (relative colony efficiency) after refrigerated storage for 6 days and culturing for 5 days. Type of experiment: cell-based. The settings on record: 6 days storage, 5 days culturing. How it is done:
The cell proliferation ability after non-freezing refrigerated storage was verified as follows. First, the human iPS cells obtained in the above “1.” were placed into the refrigerated storage liquid HTM1 of the above “2.” and stored in the non-freezing refrigerated state for 6 days as in the above “3.”. The cells were then suspended in StemFit® AK02N medium containing 10 µM Y27362, into which iMatrix-511 was added by 0.1 µg/cm^2. and seeded at a concentration of 1.3E3/cm^2. On 5th day of culturing, the cells were stained with fixed alkaline phosphatase, and then the number of colonies formed to a certain size or larger was measured using a colony counter. The number of colonies when cultured for 5 days without being subjected to the refrigerated storage was similarly measured and used as a control. Then, the number of colonies obtained by culturing for 5 days after the refrigerated storage was divided by the number of colonies in this control to obtain colony forming ability (Relative colony efficiency).
Next, in order to verify the proliferative ability after refrigerated storage and recultivation, cells having been stored in the refrigerated state for 6 days were seeded in the same manner as in “4.” above, and the colony forming ability on the 5th day of culturing was compared. […] This obtained value was almost the same as that of the customary conventional slow-cooling cryoprerservation method placing the cell suspension in a freezer at -80° C.

The test system of experiment [3] is human iPS cells. In words: Refrigerated storage in adhesive state (1): proliferation on recultivation for 4 days. Type of experiment: cell-based. How it is done: Human iPS cells obtained in the same manner as in “1.” above were used. However, at the final stage of culturing, the cells were seeded at a slightly lower concentration (1.0E3/cm^2) than the maintenance culture of “1.” above, and the day after this seeding, culture medium was replaced by StemFit® A[…] medium containing no Y27362. Then, the medium was removed 4 days after the seeding. Subsequently, the medium was replaced with HTM1 which is for the non-freezing refrigerated storage, and the medium with the cells was left to stand for 3 or 6 days under 4° C. In other words, in a state the cells were aggregated and adhered to each other, the cells were stored in non-freezing refrigerated condition for 3 days or 6 days. Trolox was added to HTM1, which is the medium for refrigerated storage. […] A UW solution (BELZER UW (registered trademark) COLD STORAGE LIQUID) was also used as the refrigerated storage medium of the comparative example. The cells after the non-freezing refrigerated storage were lightly washed with culture medium after the refrigerated storage medium were removed. Then, StemFit® A[…] medium was added and culturing was made for 4 days. At the end of this culturing, cells were enzymatically detached (by using 0.5X TrypLE® Select), and dispersed so that number of viable cells are counted. Then, it was compared with the number of cells at the start of refrigerated storage. In addition, after taking a phase difference image at the end and start of the culturing, image processing was performed with ImageJ to extract and binarize the colony area, and the colony area was measured to evaluate the proliferative ability. The above experiment was aimed at developing a refrigerated storage method in a state iPS cells were adhered, and proliferative ability (colony forming ability) subsequent to culturing for 4 days after the non-freezing refrigerated storage for 3 or 6 days. FIGS. 7A-7B show images of colonies obtained by the […] for 4 days after 3 days of the refrigerated storage, and FIGS. 7C-7D show images of colonies obtained by recultivation for 4 days after he refrigerated storage for 6 days. Here, FIGS. 7A and 7C are phase differentiation images, and binarized images of these are shown in FIGS. 7B and 7D, respectively. […] Further, in the bar graphs of FIGS. 7F and 8, the rate of increase in the number of colonies when recultivated for 4 days after the refrigerated storage for 3 days and 6 days. In the graph, the rate for a control, which is for cell not subjected to the refrigerated storage, is taken as “1” or 100%.

Experiment [4] deals with mouse blastocyst stage embryos. Description: Refrigerated storage of mouse embryos: escape from the zona pellucida. Type of experiment: cell-based, mouse (ICR). Conditions: 14 µM to 140 µM; low temperature storage for 5 days and 7 days. How it is done:
On the other hand, in order to try non-freezing refrigerated storage of mouse embryos (FIGS. 10 to 11), in vitro fertilization was performed by ova and sperms from female and male mice (both ICR), and then embryos were cultured for 3.5 days (84 hours). Here, HTF (Fuji Film Wako Pure Chemical Industries, Ltd.) was used as the medium for insemination, and KSOM (Arc Resource) was used for culturing.
As described above, a blastocyst stage embryo 3.5 days after in vitro fertilization was immediately used as it was, and a refrigerated storage experiment was conducted. Specifically, for this blastocyst stage embryo, the medium was replaced with the HTM-alpha, HTM1, and HTS FRS as used in the above “11.” and the UW solution, in respective experiments. […] Both of HTM-alpha and HTM1 here are obtained by adding 5 mM Trolox and 5-fold concentration (x5; 10 mM) GlutaMAX (registered trademark) in the same manner as in “11.” above.
Next, the effect of adding adenine hydrochloride (Tokyo Kasei) was investigated in the same manner as in FIGS. 7E to 7F. That is, under the same conditions as in the experiment of FIG. 10, the rate of embryos that escaped the zona pellucida when Adenine hydrochloride (Tokyo Kasei) was added at each concentration was determined.

Experiment [5] concerns human iPS cells. Description: Relative survival rate after 6 days of refrigerated storage and 1 day of recovery culturing. The settings on record: for effectiveness in refrigerated storage (relative survival rate): 0.04 mM to 5.0 mM added to HTM-alpha without trolox and GlutaMAX, compared with trolox 2.0 mM. The experiment is classed as cell-based. How it is done:
The HTM-alpha (UW solution + MEM-alpha, 2: 1) described in “2.” above, which has not been added with trolox and GlutaMAX (registered trademark, GIBCO), is used in FIGS. 6A and 2A. The effect of the addition of tocopherol (vitamin E) and tocopherol acetate (vitamin E derivative) in the non-freezing refrigerated storage was investigated by the same procedure as in case of trolox addition in the above. Tocopherol and tocopherol acetate were added so as to become 0.04 mM to 5.0 mM in the same manner as the trolox addition, and refrigerated storage was performed. At this time, a sample to which trolox at 2.0 mM, which is a water-soluble vitamin E analog, was added was also tested at the same time. FIG. 6D summarizes the relative survival rates after 6 days of the storage and 1 day of recovery cultivation.
Here, the effect of adding polyvinyl alcohol (PVA) instead of hydroxyethyl starch (HES) was investigated. Here, the composition of the UW solution shown in Table 1 above, excluding hydroxyethyl starch (HES), was adopted. Thus, the other components are same with those in the HTM-alpha (UW solution + MEM-alpha, 2: 1) while polyvinyl alcohol (PVA) in the range of 0.25% to 2.5% (weight) were added in the storage liquids used here. The cell viability was evaluated in the same manner as in the case of FIG. 6D above. That is, the protective effect of polyvinyl alcohol (PVA) was examined by the same procedure as in FIGS. 6A and 2A. At this time, a sample having a hydroxyethyl starch (HES) concentration of 5% (weight) was also tested at the same time. FIG. 12A summarizes the relative survival rates after 6 days of the refrigerated storage and 1 day of recovery culturing. […] It should be noted that polyvinyl alcohol (PVA) is cheaper than hydroxyethyl starch (HES), and is considered to be safer for living tissues.
Next, in the same manner as in “13.” above, mannitol was added together with polyvinyl alcohol (PVA), and the synergistic effect was verified. […]

Where [6] appears, read: additive 5 mM in HTM1, listed as trolox.

For the compound `Cc1c(C)c2c(c(C)c1O)CCC(C)(C(=O)O)O2` (stereo not drawn) [Trolox], the “ST80 compared with HTM1 with no trolox added” value in experiment [1] (0.5 mM or more added to HTM1) is “significantly higher”. For the same compound, the “ST80, dependence on addition concentration” value in experiment [1] (added to HTM1, concentration varied) was “increase approximately with increasing trolox concentrations”. Further, in experiment [1], the “effect of antioxidant/radical scavenger on ST80 (ranking)” value (“effect of antioxidant/radical scavenger” below) is “most effective”. Moreover, in experiment [1] (additive 5 mM in HTM1), the “survival rate maintenance days (ST80) as multiple of HTM1 alone” value is “about 4 times”, the “survival rate maintenance days (ST80) as multiple of UW solution” value is recorded as 9.5 times and the “80% survival-rate maintenance days (ST80)” value is on record as no less than 20 days. Further, in experiment [1] (setting [6]), the “survival rate maintenance days (ST80) as multiple of HTM1 alone” value is recorded as 4.4 times and the “80% survival-rate maintenance days (ST80)” value is given as 20.11 days. Besides, in experiment [2] (5.0 mM added to HTM1), the “colony forming ability as multiple of HTM1 alone” value is “about twice” and the “colony forming ability relative to control not subjected to refrigerated storage” value stood at 41.2%. Besides, the “colony forming ability as multiple of HTM1 alone” value in experiment [2] (5.0 mM added to HTM1, listed as trolox) is listed as 2.3 times. In experiment [2] (added to HTM1), the “colony forming ability, dependence on concentration” value was “increased depending on the concentration of trolox”. Further, the “cell proliferation rate at recultivation compared with control not refrigerated” value in experiment [3] (5 mM added into HTM1, storage 3 days) is reported as “almost the same value as that in the control”. The “cell proliferation rate at recultivation relative to control not refrigerated” value in experiment [3] (5 mM added into HTM1, storage 6 days) is “about 10%”.

Take `CC(=O)N[C@@H](CS)C(=O)O` [N-acetylcysteine]: the “effect of antioxidant/radical scavenger” value in experiment [1] is listed as “third highest effect”.

Take `Cl.Nc1ncnc2nc[nH]c12` [Adenine, adenine hydrochloride]: the “proliferation rate at recultivation” value in experiment [3] (2.8 mM and 4.2 mM in HTM1 with Trolox 5 mM, storage 6 days) is “significantly increased”. Also, the “growth rate at recultivation” value in experiment [3] (8.2 mM in HTM1 with Trolox 5 mM, storage 6 days) is given as “decreased the growth rate”. The “zona pellucida escape rate” value in experiment [4] is on record as “relatively high zona pellucida escape rate”.

As to `CC1=NN(c2ccccc2)C(=O)C1` [Edaravone, 3-Methyl-1-phenyl-2-pyrazoline-5-one], the “effect of antioxidant/radical scavenger” value in experiment [1] was “second highest effect”.

For the compound `O=C1O[C@H]([C@@H](O)CO)C(O)=C1O` [L-Ascorbic Acid, L-ascorbic acid], the “effect of antioxidant/radical scavenger” value in experiment [1] is “did not show much effect”.

On to `CC(=O)Oc1c(C)c(C)c2c(c1C)CCC(C)(CCC[C@H](C)CCC[C@H](C)CCCC(C)C)O2` (stereo partly drawn) [tocopherol acetate], for which, in experiment [5], the “effectiveness in refrigerated storage (relative survival rate)” value is “less effective in refrigerated storage than trolox”.

For `O=C(O[C@@H]1Cc2c(O)cc(O)cc2O[C@@H]1c1cc(O)c(O)c(O)c1)c1cc(O)c(O)c(O)c1` [EGCG], in experiment [1], the “effect of antioxidant/radical scavenger” value was “third highest effect”.

Turning to `OC[C@@H](O)[C@@H](O)[C@H](O)[C@H](O)CO` [mannitol], in experiment [5] (30 mM to 90 mM together with 0.5% PVA in HTM-alpha without HES, compared with 5% HES), the “viability of the cells after refrigerated storage” value was “higher”.

For tocopherol, the “effectiveness in refrigerated storage (relative survival rate)” value in experiment [5] is reported as “less effective in refrigerated storage than trolox”.
